Source: patent publication US12129235B2, “TSPO binders” (The University Court of the University of Glasgow, priority 2018, dated 2024)

How the values were obtained:
[1] = Observation after in vivo administration of ^18F-LW223
[2] = molecular target: T1, TSPO (Rattus norvegicus, UniProt P16257); assay: ^18F-LW223 PET kinetic modelling and test-retest in rats; format: in vivo; parameters: from tissue; host or cells: living Sprague-Dawley rats (brain, heart, lungs and other organs); settings: for VT: baseline, Logan modelling; for VT / Distribution volume ratio (DVR) relative to blood pool: mean±SEM, n=3
Experimental: All experiments were conducted in accordance with the local University of Edinburgh animal ethics committee and were authorized by the Home Office under the Animals (Scientific Procedures) Act 1986. 28 adult male Sprague-Dawley rats (357.1±8.1 g and 10.2±0.4 weeks), and 2 C57bl/6 (25.3±3.7 g and 10.1±0.0 weeks) were used for this study, with 2 C57bl/6 (26.0±5.3 g and 13.5±5.7 weeks) used in an additional study. The animals were housed under standard 12 h light:12 h dark conditions with food and water available ad libitum. On the day of the experiment, anesthesia was induced and maintained with 1.5-2.5% isoflurane (50/50 oxygen/nitrous oxide, 1 L/min). For imaging experiments, an intravenous (i.v.) line was established in the femoral vein or tail vein for injection of the radiotracer and the femoral artery was cannulated to allow automated blood sample collection, as previously described (Warnock et al.).
13 PET scans were performed with ^18F-LW223 (mean injected radioactivity of 19.55±2.1 MBq). Scans were acquired following i.v. bolus injection of ^18F-LW223 via tail vein or femoral vein shunt (invasive kinetic modelling experiments with β-probe automatic blood sampler) in rats. Test-retest scans were obtained in three rats following i.v. bolus of the radiotracer, with two weeks interval between test and retest imaging sessions. […] These scans were compared to baseline scans where no PK11195 was used. For displacement studies, rats received i.v. administration of ^18F-LW223 and scanned continuously for 120 min. […] A male and female mouse were initially used to derive the dosimetry estimates for ^18F-LW223 over a 4 h dynamic scan, followed by additional mice in a further study (in a study with a mean injected radioactivity of 10.83±5.6 MBq).
A commercially available β-probe system (Twilite2, Swisstrace, Switzerland) was used for the measurement of blood radioactivity as previously described (Warnock et al.). […] With data acquired in separate studies (radiometabolite experiments), the whole-blood arterial input function measured by the automatic blood sampler was corrected for the plasma-to-whole blood ratio and for metabolism in vivo.
All PET data were acquired using a preclinical PET/CT small animal scanner (nanoPET/CT, Mediso, Hungary). A CT scan (semi-circular full trajectory, maximum field of view, 480 projections, 50 kVp, 300 ms and 1:4 binning) was acquired for attenuation correction. Immediately following radiotracer administration, a 120 minutes emission scan was obtained using 3-dimentional 1:5 mode and re-binned as follows: 18×10 s; 2×30 s; 1×60 s; 2×2 min; 10×5 min; 6×10 min. PET images were reconstructed using Mediso's iterative Tera-Tomo 3D reconstruction algorithm and the following settings: 4 iterations, 6 subsets, full detector model, low regularization, spike filter on, voxel size 0.4 mm and 400-600 keV energy window. PET data were corrected for randoms, scatter and attenuation.
Image Processing and Data Analysis Reconstructed scans were imported into PMOD 3.8 software (PMOD Technologies, Switzerland). Volumes of interest (VOIs) were manually drawn around organs of interest. Time-activity curves (TACs) were generated and standardized uptake values (SUVs) calculated as concentration in the VOI divided by injected dose divided by animal weight. Kinetic modelling was performed using compartmental analysis (1-Tissue (1T) and 2-Tissue (2T) models) and graphical analysis (Logan plot and Ichise multivariate analysis) to estimate the volume of distribution (VT) in different tissues (Innis et al.; Logan; and Ichise et al.). Model fitting performance was evaluated using the Akaike information criterion (AIC) and the model selection criterion (MSC), where the preferred model had the lowest AIC and highest MSC. The selected identifiability criterion was the percentage standard error (% SE) of VT estimates. […]

[3] = molecular target: T1, TSPO; assay: ^18F-LW223 PET/CT in rat model of myocardial infarction; format: in vivo, rats; parameters: from tissue; host or cells: living Sprague-Dawley rats (brain, heart, lungs and other organs); settings: heart, brain and lungs; 7 days after myocardial infarction
Text: Rats underwent permanent of ligation of the left anterior descending coronary artery to induce myocardial infarction and after 7 days were imaged using ^18F-LW223 PET/CT (see FIG. 11). Naive rats were used as a healthy control for comparison. […] This indicates a myocardial infarction mediated increase in expression of TSPO within these organs which may also be interpreted as increased systemic inflammation.

[4] = Radiometabolite and arterial blood analysis; format: in vivo, rats; settings: rat; 120 minutes post-injection
Experimental: In a separate set of experiments (radiometabolite studies), the femoral artery was cannulated for blood sampling and the radiotracer was administered i.v. via tail vein. Surgical cannulation of femoral vein and artery was performed as follows: polyethylene catheters (PE50) filled with heparinized saline (20 IU/mL) were inserted into the left femoral artery or vein with the help of a stereomicroscope and securely fastened with ligatures (6-0 silk thread). Catheters were held in place with surgical glue. Body temperature was maintained by heated scanner bed or heated mat and monitored by rectal thermometer. Vital signs, including heart rate and respiration rate were monitored continuously during the experiments.
Arterial blood samples were collected at 2, 5, 10, 20, 30, 60 and 120 minutes post-radiotracer administration (69.8±9.2 MBq, n=17 rats). […] Following blood collection, all samples were kept on ice until analyzed. Radioactivity in whole blood and plasma was assessed using a well-type γ-counter using a 400-1400 keV window (Perkin Elmer Wizzard2, USA). Plasma samples (400 μL) were processed by acetonitrile denaturation and analyzed by HPLC (Ultimate2000, ThermoFisher, UK) on a Luna C18(2) column (Luna C18(2), 10×250 mm, 10 μm, Phenomenex, UK) with a mobile phase of acetonitrile/water 70/30 at a flow rate of 4 mL/min to estimate the parent fraction. […]

- negative effects following administration in vivo [1]: no negative effects were apparent
- test-retest inter-subject variability of DVR ([2]; brain): 16%
- VT ([2]; brain): 1.46
- Distribution volume ratio (DVR) relative to blood pool ([2]; brain): 0.53±0.06
- test-retest inter-subject variability of DVR ([2]; heart): 2%
- VT ([2]; heart): 9.48±0.03
- Distribution volume ratio (DVR) relative to blood pool ([2]; heart): 2.96±0.14
- test-retest inter-subject variability of DVR ([2]; lungs): 15%
- VT ([2]; lungs): 5.13±0.29
- Distribution volume ratio (DVR) relative to blood pool ([2]; lungs): 1.84±0.13
- SUV relative to the blood pool versus naive rats [3]: increase
- parent in arterial blood [4]: approximately 70%
SMILES: CC[C@@H](C)N(C)C(=O)c1nc2ccccc2c(-c2ccccc2)c1C[18F] [^18F-LW223, (R)-(N-sec-Butyl)-3-[19-fluoro]-methyl-N-methyl-4-phenylquinoline-2-carboxamide]
